What was measured:
M. extorquens (cymR2) = assay type: cell-based, Methylobacterium extorquens; details: cumate 1-30 μg/ml
Description: M. extorquens (ATCC 55366) was used for the preparation of the heterologous gene expression host. E. coli strain Top10 was used for cloning and propagation of recombinant DNA and S17-1λpir (recA, thi, pro, hsdR^−M^+ RP4:2-Tc:Mu:Km Tn7, pir lysogen; Sm^R, Tp^R) was used for propagation of the helper plasmid (23). E. coli was cultured in Luria Bertani broth (LB) at 37° C. Strain of M. extorquens was grown in CHOI medium, as previously described (17) and 1% (v/v) methanol was used as sole carbon source. Both media were solidified by 1.8% agar (Difco) when appropriate. Antibiotics were used for E. coli and M. extorquens at the following concentrations (in ug/ml): ampicillin, 100; kanamycin (Km), 40; tetracyclin (Tc), 35.
(§1) To test the optimal concentration of inducer, cumate, recombinant M. extorquens (cymR2) transformed with pCUM-gfp was grown to mid-log phase (0.8-1.0 units at OD600) at 30° C. followed by induction with cumate at different concentrations. Reporter gene expression was detectable 4 h post induction. Cumate induction was very sensitive since about 47% of reporter gene expression was obtained with 1 μg cumate/ml (FIG. 5). […] Optimum cumate concentration for effective induction of reporter gene expression was 15 μg/ml (ca. 0.1 mM).

cym and cmt operons = details: P. putida F1, regulated by cymR; cited from earlier work
repressor protein (cymR) = molecular target: T1, repressor protein (cymR) (Pseudomonas putida, UniProt O33453); assay: cumate induction of gfp reporter gene expression in M. extorquens (cymR2) transformed with pCUM-gfp; assay type: cell-based, Pseudomonas putida F1
T1 construct: expressed in transfected cells; host or cells: Methylobacterium extorquens ATCC 55366, strain cymR2 (two cymR copies integrated by mini-Tn7 under PmxaF), carrying pCUM-gfp
Description: Detection of gene expression Detection of GFP was carried out by fluorescence microscopy, and quantified by using a SPECTRAFluor Plus (TECAN Austria Gmbh, GrodIg, Austria) under excitation and emission wavelengths of 485 and 508 nm, respectively. Concentration of GFP was calculated based on a linear relationship between concentration and fluorescence units determined using solutions of purified GFP (Qbiogene). The biomass (X) was determined by cell dry weight measurement of the samples (Moisture Analyzer MA 30, Sartorius).
as §1

T1 sequence (O33453 whole entry): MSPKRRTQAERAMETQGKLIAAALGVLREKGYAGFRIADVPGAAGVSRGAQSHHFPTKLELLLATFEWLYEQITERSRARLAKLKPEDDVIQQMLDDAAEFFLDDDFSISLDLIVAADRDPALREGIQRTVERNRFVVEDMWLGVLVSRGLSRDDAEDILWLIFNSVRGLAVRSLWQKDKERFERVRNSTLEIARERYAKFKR

| Structure (SMILES) | effect on growth (M. extorquens (cymR2)) | induction of cym/cmt operon expression (cym and cmt operons) | cumate concentration giving maximum gene expression (repressor protein (cymR); FIG. 5, gfp expression) | time post induction at which reporter gene expression was detectable (repressor protein (cymR); cumate at different concentrations) [h] | optimum cumate concentration for effective induction of reporter gene expression (repressor protein (cymR); induced at OD600 0.8-1.0, 30° C.) [µg/mL] | optimum cumate concentration for effective induction of reporter gene expression (repressor protein (cymR); molar equivalent of 15 μg/ml) | time post induction of maximum GFP expression (repressor protein (cymR); pCUM-GFP clones, FIG. 7a, cumate 15 μg/ml) [h] |
| --- | --- | --- | --- | --- | --- | --- | --- |
| CC(C)c1ccc(C(=O)O)cc1 [cumate, p-isopropylbenzoate] | No growth difference | Induction is afforded | 15-30 μg cumate/ml | 4 | 15 | ca. 0.1 mM | 30 |
| Cc1ccc(C(C)C)cc1 [p-cymene, p-isopropyltoluene] | – | not | – | – | – | – | – |

Reference: US8216821B2, “Regulation of heterologous recombinant protein expression in methylotrophic and methanotrophic bacteria” (National Research Council of Canada, priority 2005, dated 2012)
